According to PubChem BioAssay (NCI):
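Protocol summary: plate cells (96-well), add compound at 5 concentrations, incubate 48 h, interpolate endpoints linearly. TGI denotes the concentration required for complete inhibition of growth.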

Columns and labels:
Test in all cases: growth of human tumour cells (NCI), 48 h
MDA-MB-231 breast = tested on: MDA-MB-231 breast
COLO 205 colon = tested on: COLO 205 colon
HCC-2998 colon = tested on: HCC-2998 colon
M14 melanoma = tested on: M14 melanoma
HT29 colon = tested on: HT29 colon
BT-549 breast = tested on: BT-549 breast
NCI-H226 lung = tested on: NCI-H226 lung
RXF 393 renal = tested on: RXF 393 renal
MDA-MB-435 = tested on: MDA-MB-435
U251 CNS = tested on: U251 CNS
SN12C renal = tested on: SN12C renal
HCT-15 colon = tested on: HCT-15 colon
RPMI-8226 leukemia = tested on: RPMI-8226 leukemia
UO-31 renal = tested on: UO-31 renal
MALME-3M melanoma = tested on: MALME-3M melanoma
K-562 leukemia = tested on: K-562 leukemia
IGROV1 ovarian = tested on: IGROV1 ovarian
SR leukemia = tested on: SR leukemia
SNB-75 CNS = tested on: SNB-75 CNS
SK-MEL-2 melanoma = tested on: SK-MEL-2 melanoma
HS 578T breast = tested on: HS 578T breast
UACC-62 melanoma = tested on: UACC-62 melanoma
SF-295 CNS = tested on: SF-295 CNS
UACC-257 melanoma = tested on: UACC-257 melanoma
PC-3 prostate = tested on: PC-3 prostate
CCRF-CEM leukemia = tested on: CCRF-CEM leukemia
OVCAR-4 ovarian = tested on: OVCAR-4 ovarian
SK-MEL-28 melanoma = tested on: SK-MEL-28 melanoma
NCI-H460 lung = tested on: NCI-H460 lung
TK-10 renal = tested on: TK-10 renal
NCI/ADR-RES ovarian = tested on: NCI/ADR-RES ovarian
EKVX NSCLC = tested on: EKVX NSCLC
ACHN renal = tested on: ACHN renal
HOP-62 NSCLC = tested on: HOP-62 NSCLC
OVCAR-5 ovarian = tested on: OVCAR-5 ovarian
LOX IMVI melanoma = tested on: LOX IMVI melanoma
SK-OV-3 ovarian = tested on: SK-OV-3 ovarian
SF-268 CNS = tested on: SF-268 CNS
OVCAR-8 ovarian = tested on: OVCAR-8 ovarian
NCI-H522 lung = tested on: NCI-H522 lung
OVCAR-3 ovarian = tested on: OVCAR-3 ovarian
HCT-116 colon = tested on: HCT-116 colon
SNB-19 CNS = tested on: SNB-19 CNS
SW-620 colon = tested on: SW-620 colon
CAKI-1 renal = tested on: CAKI-1 renal
MDA-N = tested on: MDA-N
NCI-H23 lung = tested on: NCI-H23 lung
786-0 renal = tested on: 786-0 renal
SK-MEL-5 melanoma = tested on: SK-MEL-5 melanoma
KM12 colon = tested on: KM12 colon
SF-539 CNS = tested on: SF-539 CNS
A549 NSCLC = tested on: A549 NSCLC
MOLT-4 leukemia = tested on: MOLT-4 leukemia
HOP-92 NSCLC = tested on: HOP-92 NSCLC
MCF7 breast = tested on: MCF7 breast
A498 renal = tested on: A498 renal
HL-60(TB) leukemia = tested on: HL-60(TB) leukemia
DU-145 prostate = tested on: DU-145 prostate

## O=C1NCCCNCCCNCCCNC(=O)c2cccc1n2
MDA-MB-231 breast
  TGI: > 100 µM
COLO 205 colon
  TGI: > 100 µM
HCC-2998 colon
  TGI: > 100 µM
M14 melanoma
  TGI: > 100 µM
HT29 colon
  TGI: > 100 µM
BT-549 breast
  TGI: > 100 µM
NCI-H226 lung
  TGI: > 100 µM
RXF 393 renal
  TGI: > 100 µM
MDA-MB-435
  TGI: > 100 µM
U251 CNS
  TGI: > 100 µM
SN12C renal
  TGI: > 100 µM
HCT-15 colon
  TGI: > 100 µM
RPMI-8226 leukemia
  TGI: > 100 µM
UO-31 renal
  TGI: > 100 µM
MALME-3M melanoma
  TGI: > 100 µM
K-562 leukemia
  TGI: > 100 µM
IGROV1 ovarian
  TGI: > 100 µM
SR leukemia
  TGI: > 100 µM
SNB-75 CNS
  TGI: > 100 µM
SK-MEL-2 melanoma
  TGI: > 100 µM
HS 578T breast
  TGI: > 100 µM
UACC-62 melanoma
  TGI: > 100 µM
SF-295 CNS
  TGI: > 100 µM
UACC-257 melanoma
  TGI: > 100 µM
PC-3 prostate
  TGI: > 100 µM
CCRF-CEM leukemia
  TGI: > 100 µM
OVCAR-4 ovarian
  TGI: > 100 µM
SK-MEL-28 melanoma
  TGI: > 100 µM
NCI-H460 lung
  TGI: > 100 µM
TK-10 renal
  TGI: > 100 µM
NCI/ADR-RES ovarian
  TGI: > 100 µM
EKVX NSCLC
  TGI: > 100 µM
ACHN renal
  TGI: > 100 µM
HOP-62 NSCLC
  TGI: > 100 µM
OVCAR-5 ovarian
  TGI: > 100 µM
LOX IMVI melanoma
  TGI: > 100 µM
SK-OV-3 ovarian
  TGI: > 100 µM
SF-268 CNS
  TGI: > 100 µM
OVCAR-8 ovarian
  TGI: > 100 µM
NCI-H522 lung
  TGI: > 100 µM
OVCAR-3 ovarian
  TGI: > 100 µM
HCT-116 colon
  TGI: > 100 µM
SNB-19 CNS
  TGI: > 100 µM
SW-620 colon
  TGI: > 100 µM
CAKI-1 renal
  TGI: > 100 µM
MDA-N
  TGI: > 100 µM
NCI-H23 lung
  TGI: > 100 µM
786-0 renal
  TGI: > 100 µM
SK-MEL-5 melanoma
  TGI: > 100 µM
KM12 colon
  TGI: > 100 µM
SF-539 CNS
  TGI: > 100 µM
A549 NSCLC
  TGI: > 100 µM
MOLT-4 leukemia
  TGI: > 100 µM

## COC1(OC)CC(CO)(CNc2nc(N)nc(Cl)c2/C=N\O)C1
MDA-MB-231 breast
  TGI: > 100 µM
COLO 205 colon
  TGI: > 100 µM
HCC-2998 colon
  TGI: > 100 µM
HT29 colon
  TGI: > 100 µM
BT-549 breast
  TGI: > 100 µM
NCI-H226 lung
  TGI: > 100 µM
RXF 393 renal
  TGI: > 100 µM
MDA-MB-435
  TGI: > 100 µM
U251 CNS
  TGI: > 100 µM
SN12C renal
  TGI: > 100 µM
HCT-15 colon
  TGI: > 100 µM
RPMI-8226 leukemia
  TGI: > 100 µM
UO-31 renal
  TGI: > 100 µM
MALME-3M melanoma
  TGI: > 100 µM
HOP-92 NSCLC
  TGI: 89.2 µM
K-562 leukemia
  TGI: > 100 µM
IGROV1 ovarian
  TGI: > 100 µM
SR leukemia
  TGI: > 100 µM
SNB-75 CNS
  TGI: > 100 µM
HS 578T breast
  TGI: > 100 µM
SF-295 CNS
  TGI: > 100 µM
UACC-257 melanoma
  TGI: > 100 µM
PC-3 prostate
  TGI: > 100 µM
CCRF-CEM leukemia
  TGI: > 100 µM
OVCAR-4 ovarian
  TGI: > 100 µM
SK-MEL-28 melanoma
  TGI: > 100 µM
MCF7 breast
  TGI: > 100 µM
NCI-H460 lung
  TGI: > 100 µM
TK-10 renal
  TGI: > 100 µM
NCI/ADR-RES ovarian
  TGI: > 100 µM
EKVX NSCLC
  TGI: > 100 µM
ACHN renal
  TGI: > 100 µM
HOP-62 NSCLC
  TGI: > 100 µM
A498 renal
  TGI: 98.5 µM
OVCAR-5 ovarian
  TGI: > 100 µM
LOX IMVI melanoma
  TGI: > 100 µM
SF-268 CNS
  TGI: > 100 µM
OVCAR-8 ovarian
  TGI: > 100 µM
NCI-H522 lung
  TGI: > 100 µM
OVCAR-3 ovarian
  TGI: > 100 µM
HL-60(TB) leukemia
  TGI: > 100 µM
HCT-116 colon
  TGI: > 100 µM
SNB-19 CNS
  TGI: > 100 µM
SW-620 colon
  TGI: > 100 µM
CAKI-1 renal
  TGI: > 100 µM
MDA-N
  TGI: > 100 µM
DU-145 prostate
  TGI: > 100 µM
NCI-H23 lung
  TGI: > 100 µM
786-0 renal
  TGI: > 100 µM
SK-MEL-5 melanoma
  TGI: > 100 µM
KM12 colon
  TGI: 24.4 µM
SF-539 CNS
  TGI: > 100 µM
A549 NSCLC
  TGI: > 100 µM
MOLT-4 leukemia
  TGI: 85.4 µM
